Assay results from US20240279202A1 (NURIX THERAPEUTICS, INC., priority 2021, published 2024).

Molecular target: T1, ITK (Mus musculus, UniProt Q03526)
T1 construct: mice were sacrificed and splenocytes were isolated and used to prepare protein lysates; from tissue; host or cells: mouse splenocytes (spleen) after oral dosing
T1 sequence (Q03526 1-625): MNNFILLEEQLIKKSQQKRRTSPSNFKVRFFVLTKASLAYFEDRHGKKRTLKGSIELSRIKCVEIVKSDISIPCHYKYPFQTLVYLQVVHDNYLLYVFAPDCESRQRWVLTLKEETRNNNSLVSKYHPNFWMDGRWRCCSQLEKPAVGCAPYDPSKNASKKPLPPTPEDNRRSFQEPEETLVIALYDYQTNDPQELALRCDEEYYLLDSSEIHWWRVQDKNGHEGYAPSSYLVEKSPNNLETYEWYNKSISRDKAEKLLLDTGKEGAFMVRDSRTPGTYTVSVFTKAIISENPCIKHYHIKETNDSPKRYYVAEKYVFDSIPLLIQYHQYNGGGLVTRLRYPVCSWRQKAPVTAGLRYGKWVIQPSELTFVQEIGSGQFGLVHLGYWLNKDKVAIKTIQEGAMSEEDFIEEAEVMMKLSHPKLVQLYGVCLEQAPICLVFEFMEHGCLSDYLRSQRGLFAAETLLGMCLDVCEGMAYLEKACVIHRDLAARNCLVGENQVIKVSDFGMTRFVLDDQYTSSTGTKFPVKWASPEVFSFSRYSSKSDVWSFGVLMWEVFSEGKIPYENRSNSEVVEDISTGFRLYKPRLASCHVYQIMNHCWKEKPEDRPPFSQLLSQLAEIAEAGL
Assay: Mouse PD assay for ITK degradation (Western blot, splenocytes after oral administration)
Assay type: in vivo
Conditions: for ITK degradation in vivo at 6 hours (FIG. 3A, FIG. 4A): mice, oral, splenocytes, Western blot; for ITK (%) 90 mpk PO, 6 h: percent ITK remaining in mouse splenocytes relative to vehicle
Outline: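 Mice dosed orally, some compounds at 90 mg/kg; splenocytes harvested after 6 hours (some 24 hours). ITK measured by Western blot of equal-protein lysates, normalized to actin. Values are % ITK remaining relative to vehicle-control mean.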

Compound: Cn1c(=O)n(C2CCC(=O)NC2=O)c2cccc(N3CCC(CN4CCC5(CC4)CCN(c4ccc6cc(-c7n[nH]c8c7C[C@@H]7C(F)(F)[C@]7(C)C8)[nH]c6c4)C5=O)CC3)c21 (stereo partly drawn) [Compound 16, 3-(4-(4-((2-(2-((4aS,5aR)-5,5-difluoro-5a-methyl-1,4,4a,5,5a,6-hexahydrocyclopropa[f]indazol-3-yl)-1H-indol-6-yl)-1-oxo-2,8-diazaspiro[4.5]decan-8-yl)methyl)piperidin-1-yl)-3-methyl-2-oxo-2,3-dihydro-1H-benzo[d]imidazol-1-yl)piperidine-2,6-dione]
- ITK degradation in vivo at 6 hours (FIG. 3A, FIG. 4A): degraded ITK in vivo
- ITK (%) 90 mpk PO, 6 h: 77%

Compound: C[C@@]12Cc3[nH]nc(C(=O)Nc4cnn(CC5CN(C(=O)C6CCN(c7ccc(C8CCC(=O)NC8=O)cn7)CC6)C5)c4)c3C[C@@H]1C2(F)F (stereo partly drawn) [Compound 50, (4aS,5aR)-N-(1-((1-(1-(5-(2,6-dioxopiperidin-3-yl)pyridin-2-yl)piperidine-4-carbonyl)azetidin-3-yl)methyl)-1H-pyrazol-4-yl)-5,5-difluoro-5a-methyl-1,4,4a,5,5a,6-hexahydrocyclopropa[f]indazole-3-carboxamide]
- ITK (%) 90 mpk PO, 6 h: 113%

Compound: Cn1c(=O)n(C2CCC(=O)NC2=O)c2ccc(N3CCC(CN4CCC5(CC4)CCN(c4ccc6cc(-c7n[nH]c8c7CCC(C)(C)C8)[nH]c6c4)C5=O)CC3)cc21 (stereo not drawn) [Compound 14, 3-(5-(4-((2-(2-(6,6-dimethyl-4,5,6,7-tetrahydro-1H-indazol-3-yl)-1H-indol-6-yl)-1-oxo-2,8-diazaspiro[4.5]decan-8-yl)methyl)piperidin-1-yl)-3-methyl-2-oxo-2,3-dihydro-1H-benzo[d]imidazol-1-yl)piperidine-2,6-dione]
- ITK degradation in vivo at 6 hours (FIG. 3A, FIG. 4A): degraded ITK in vivo
- ITK (%) 90 mpk PO, 6 h: 47%

Compound: CN(C(=O)CC1CCN(CC2CCN(c3ccc(C(=O)NC4CCC(=O)NC4=O)nc3)CC2)CC1)c1ccc2cc(-c3n[nH]c4c3C[C@@H]3C(F)(F)[C@]3(C)C4)[nH]c2c1 (stereo partly drawn) [Compound 75, 5-(4-((4-(2-((2-((4aS,5aR)-5,5-difluoro-5a-methyl-1,4,4a,5,5a,6-hexahydrocyclopropa[f]indazol-3-yl)-1H-indol-6-yl)(methyl)amino)-2-oxoethyl)piperidin-1-yl)methyl)piperidin-1-yl)-N-(2,6-dioxopiperidin-3-yl)picolinamide]
- ITK (%) 90 mpk PO, 6 h: 137%
